Article PMC9728921, “Characterization of a KDM5 small molecule inhibitor with antiviral activity against hepatitis B virus” (PLOS ONE, 2022)
“Also recorded” adds a separate entry of the source.

Assays:
KDM3A = KDM3A (Homo sapiens, UniProt Q9Y4C1); assay: KDM3A enzymatic assay (AlphaLISA); format: biochemical
Method: (§1) The following assay protocol was used for all histone demethylases tested except KDM1A, KDM5A, B, and D, which are described below. Compounds were serially diluted into a 384-well Alpha plate as a DMSO solution and mixed with 5 μL reaction buffer (buffer A) containing 50 mM HEPES (pH 7.0), 0.1% BSA, and 0.003% Tween-20. The enzyme of interest was pre-incubated with 15 μM of Fe^2+ for 10 min (except 30 min for KDM2B) in reaction buffer A. 5 μL of the enzyme mixture was added to each of the compound-containing wells and incubated for 10 min. The reaction was started by addition of a 5 μL mixture containing 300 nM peptide substrate, 75 μM L-ascorbic acid, and 30 μM α-ketoglutarate in buffer A. This final 15 μL of reaction mixture was incubated for 20 min for KDM5B and 1 hour for the other KDM enzymes. The reaction was quenched with 10 μL of diluted AlphaLISA Acceptor beads (1:400) in Epigenetics Buffer and incubated for 60 min. The Donor beads were diluted 1:400 into Epigenetics Buffer in the dark and 10 μL of this was added to each well and incubated for another 60 min in the dark. The assay plates were read on an Enspire plate reader (PerkinElmer) using a standard AlphaLISA program.
(§2) Data was analyzed using GraphPad Prism 6.0 (La Jolla, CA). […] IC50 values were calculated as an average of at least two independent experiments.

KDM7B = KDM7B (Homo sapiens, UniProt Q9UPP1); assay: KDM7B enzymatic assay (AlphaLISA); format: biochemical
Method: as §1, §2

KDM6B = KDM6B (Homo sapiens, UniProt O15054); assay: KDM6B enzymatic assay (AlphaLISA); format: biochemical
Method: as §1, §2

H3K4me3:H3 = assay: Global H3K4me3:H3 ratio by ELISA in HBV-infected PHH; format: cell-based, human; details: single pulse dose; day nine
Method: For the pulse dose regimen, medium containing compound was removed after two hours incubation and replaced with fresh maintenance medium every three to four days. Cells in the pulse dose experiment received only one dose of compound (Day = 0). Histones were enriched from tissue and PBMC samples using the AbCam total histone extraction kit (Cambridge, UK; ab113476) according to the manufacturer’s protocol after cell/tissue dissociation with an IKA T10 TURRAX homogenizer (Wilmington, NC; […] Histones were enriched from 500,000 to 750,000 PHH. PHH monolayers were washed once with cold (4°C) 1X DPBS (Dulbecco’s phosphate buffered saline; 21-031-CV, Corning Inc.). Cold triton extraction buffer (TEB): 1X DPBS, 0.5% triton X-100 (Sigma-Aldrich, T9284), 2 mM phenylmethylsulfonyl fluoride (PMSF; Thermo Fisher Scientific, 36978), was added to the cell monolayer at a density of 1 x 10^6 cells/mL. After 10-minute incubation in TEB at 4°C, the cell monolayer was scraped and cells were pelleted by centrifuged at 1200 rpm at 4°C for 10 minutes. […] Total protein concentration of all samples following histone enrichment was determined using a bicinchoninic acid (BCA) assay (Thermo Fisher Scientific; 23225). […] Absorbance of each well was measured at 450 nm within five minutes using a SpectraMax Plus 384 Microplate Reader (Molecular Devices; PLUS 384).

Tolerability in rats = format: in vivo; details: GS-5801 doses tested (0.3-30 mg/kg p.o. once daily for five days)
Method: Animals were sacrificed 24 hours post final dose and approximately 100 mg of liver (left lateral lobe), lung, and kidney tissue was collected. Additionally, one mL of venous blood for PBMC isolation was collected into K2EDTA vacutainer tubes (Thermo Fisher; BD367835). […] Diluted whole blood was layered onto an equal volume of HISTOPAQUE-1077 (Sigma; 10771) gradient medium and centrifuged at 400 x g for 30 minutes with the centrifuge brake switch off. PBMCs were collected at the plasma-HISTOPAQUE-1077 interface and washed three times with DPBS by centrifugation at 500 x g for 10 minutes. Tissue samples and PBMCs were snap frozen using liquid nitrogen and stored at -80°C for subsequent H3K4me3:H3 analysis by ELISA.

HBV (genotype C, GTC) = assay: HBV mouse efficacy model (uPA-SCID mice with humanized livers), serum HBV DNA and HBsAg; format: in vivo; details: 30 or 100 mg/kg p.o. qd x 7d, one week on one week off, 56 days
Method: The in vivo and in vitro hepatocyte infection model portions of the study were performed by PhoenixBio (Higashi-Hiroshima, Japan). […] Mice were infected with HBV GTC virus (PhoenixBio; PBB004, Lot #160205) and had serum HBV titer levels greater than 1.0E+08 copies/mL seven days prior to study initiation. HBV-infected mice were treated once daily (p.o.) for seven days (Day 0–6) with deionized water for acclimation. […] Fifty μL of blood was collected from animals under isoflurane anesthesia via the retro-orbital plexus/sinus and centrifuged for serum collection for HBsAg and HBV DNA measurements described below. At termination of study (Day 56), 100–200 mg of tissue was harvested from the left lateral liver lobe of all animals.
For in vivo mouse studies, serum HBsAg concentrations were determined by SRL, Inc. (Tokyo, Japan) based on the Chemiluminescent Enzyme Immuno Assay (CLEIA) developed by Fujirebio (Lumipulse® Presto II).
HBV DNA was extracted from 5 μL of serum using the SMITEST EX-R&D Nucleic Acid Extraction Kit (Medical & Biological Laboratories, CO. LTD, Nagoya, Japan) and dissolved in 20 μL nuclease-free water (Thermo Fisher Scientific Inc., Waltham, MA). […] The average serum HBV DNA level was calculated from the values of the two separate wells. […]

Chain of KDM3A (Q9Y4C1 whole entry): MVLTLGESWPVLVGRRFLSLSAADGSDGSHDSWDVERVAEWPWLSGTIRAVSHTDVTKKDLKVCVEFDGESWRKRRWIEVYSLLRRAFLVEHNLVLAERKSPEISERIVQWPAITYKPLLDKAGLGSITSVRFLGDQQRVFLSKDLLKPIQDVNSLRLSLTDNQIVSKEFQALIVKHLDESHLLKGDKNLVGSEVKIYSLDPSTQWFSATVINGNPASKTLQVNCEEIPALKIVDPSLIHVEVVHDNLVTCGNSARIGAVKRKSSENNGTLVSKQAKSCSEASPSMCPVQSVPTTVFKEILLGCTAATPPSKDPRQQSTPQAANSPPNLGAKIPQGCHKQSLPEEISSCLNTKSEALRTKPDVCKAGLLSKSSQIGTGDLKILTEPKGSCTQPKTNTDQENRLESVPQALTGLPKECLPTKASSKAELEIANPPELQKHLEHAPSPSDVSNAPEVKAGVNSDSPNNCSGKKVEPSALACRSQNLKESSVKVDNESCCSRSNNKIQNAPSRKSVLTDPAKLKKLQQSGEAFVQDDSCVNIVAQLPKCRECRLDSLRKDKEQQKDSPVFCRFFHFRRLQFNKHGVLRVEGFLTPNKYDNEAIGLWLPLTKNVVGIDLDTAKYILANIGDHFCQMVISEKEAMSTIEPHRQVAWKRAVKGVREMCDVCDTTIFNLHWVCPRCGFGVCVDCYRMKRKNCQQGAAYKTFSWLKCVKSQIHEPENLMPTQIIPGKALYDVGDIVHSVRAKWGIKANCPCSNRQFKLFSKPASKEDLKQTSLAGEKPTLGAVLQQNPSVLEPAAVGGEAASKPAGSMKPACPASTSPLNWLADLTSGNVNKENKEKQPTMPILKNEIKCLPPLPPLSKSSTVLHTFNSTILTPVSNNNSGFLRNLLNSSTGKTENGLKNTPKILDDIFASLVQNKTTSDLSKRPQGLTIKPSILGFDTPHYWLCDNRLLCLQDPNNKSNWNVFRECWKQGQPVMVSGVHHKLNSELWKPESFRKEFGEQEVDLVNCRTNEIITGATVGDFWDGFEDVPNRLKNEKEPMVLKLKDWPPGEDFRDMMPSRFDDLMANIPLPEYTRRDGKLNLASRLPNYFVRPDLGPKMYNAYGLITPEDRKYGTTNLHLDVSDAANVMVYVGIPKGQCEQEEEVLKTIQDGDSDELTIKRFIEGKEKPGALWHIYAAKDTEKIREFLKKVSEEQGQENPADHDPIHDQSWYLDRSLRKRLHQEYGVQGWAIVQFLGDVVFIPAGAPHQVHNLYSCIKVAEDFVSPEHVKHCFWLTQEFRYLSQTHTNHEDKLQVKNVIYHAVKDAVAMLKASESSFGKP
Chain of KDM7B (Q9UPP1 whole entry): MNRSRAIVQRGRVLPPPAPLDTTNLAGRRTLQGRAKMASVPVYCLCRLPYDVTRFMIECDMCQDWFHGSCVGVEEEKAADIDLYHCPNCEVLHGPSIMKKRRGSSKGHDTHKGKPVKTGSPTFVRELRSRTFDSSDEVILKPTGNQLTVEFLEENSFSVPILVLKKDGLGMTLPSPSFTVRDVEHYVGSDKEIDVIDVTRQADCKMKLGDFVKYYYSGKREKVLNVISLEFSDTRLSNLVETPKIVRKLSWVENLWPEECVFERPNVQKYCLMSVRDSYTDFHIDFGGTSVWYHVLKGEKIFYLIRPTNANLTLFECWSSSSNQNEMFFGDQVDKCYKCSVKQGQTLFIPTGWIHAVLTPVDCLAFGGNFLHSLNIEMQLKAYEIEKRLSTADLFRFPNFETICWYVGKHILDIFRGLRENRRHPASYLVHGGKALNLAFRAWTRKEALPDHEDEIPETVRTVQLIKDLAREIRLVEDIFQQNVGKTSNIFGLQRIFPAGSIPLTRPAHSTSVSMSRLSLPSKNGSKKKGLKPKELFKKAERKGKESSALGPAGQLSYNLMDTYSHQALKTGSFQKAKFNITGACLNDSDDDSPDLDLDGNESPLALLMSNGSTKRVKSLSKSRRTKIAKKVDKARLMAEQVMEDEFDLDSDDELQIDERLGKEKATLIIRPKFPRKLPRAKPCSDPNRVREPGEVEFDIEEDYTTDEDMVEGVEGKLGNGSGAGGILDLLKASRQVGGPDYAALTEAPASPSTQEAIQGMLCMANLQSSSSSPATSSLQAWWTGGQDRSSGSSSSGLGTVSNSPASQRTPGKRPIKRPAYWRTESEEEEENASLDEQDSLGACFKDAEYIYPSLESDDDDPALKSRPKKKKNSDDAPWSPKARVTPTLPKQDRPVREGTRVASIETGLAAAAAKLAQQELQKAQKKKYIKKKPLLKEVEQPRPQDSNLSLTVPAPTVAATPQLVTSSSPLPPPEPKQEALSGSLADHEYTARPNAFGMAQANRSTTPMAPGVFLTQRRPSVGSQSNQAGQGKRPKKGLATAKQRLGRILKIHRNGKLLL
Chain of KDM6B (O15054 whole entry): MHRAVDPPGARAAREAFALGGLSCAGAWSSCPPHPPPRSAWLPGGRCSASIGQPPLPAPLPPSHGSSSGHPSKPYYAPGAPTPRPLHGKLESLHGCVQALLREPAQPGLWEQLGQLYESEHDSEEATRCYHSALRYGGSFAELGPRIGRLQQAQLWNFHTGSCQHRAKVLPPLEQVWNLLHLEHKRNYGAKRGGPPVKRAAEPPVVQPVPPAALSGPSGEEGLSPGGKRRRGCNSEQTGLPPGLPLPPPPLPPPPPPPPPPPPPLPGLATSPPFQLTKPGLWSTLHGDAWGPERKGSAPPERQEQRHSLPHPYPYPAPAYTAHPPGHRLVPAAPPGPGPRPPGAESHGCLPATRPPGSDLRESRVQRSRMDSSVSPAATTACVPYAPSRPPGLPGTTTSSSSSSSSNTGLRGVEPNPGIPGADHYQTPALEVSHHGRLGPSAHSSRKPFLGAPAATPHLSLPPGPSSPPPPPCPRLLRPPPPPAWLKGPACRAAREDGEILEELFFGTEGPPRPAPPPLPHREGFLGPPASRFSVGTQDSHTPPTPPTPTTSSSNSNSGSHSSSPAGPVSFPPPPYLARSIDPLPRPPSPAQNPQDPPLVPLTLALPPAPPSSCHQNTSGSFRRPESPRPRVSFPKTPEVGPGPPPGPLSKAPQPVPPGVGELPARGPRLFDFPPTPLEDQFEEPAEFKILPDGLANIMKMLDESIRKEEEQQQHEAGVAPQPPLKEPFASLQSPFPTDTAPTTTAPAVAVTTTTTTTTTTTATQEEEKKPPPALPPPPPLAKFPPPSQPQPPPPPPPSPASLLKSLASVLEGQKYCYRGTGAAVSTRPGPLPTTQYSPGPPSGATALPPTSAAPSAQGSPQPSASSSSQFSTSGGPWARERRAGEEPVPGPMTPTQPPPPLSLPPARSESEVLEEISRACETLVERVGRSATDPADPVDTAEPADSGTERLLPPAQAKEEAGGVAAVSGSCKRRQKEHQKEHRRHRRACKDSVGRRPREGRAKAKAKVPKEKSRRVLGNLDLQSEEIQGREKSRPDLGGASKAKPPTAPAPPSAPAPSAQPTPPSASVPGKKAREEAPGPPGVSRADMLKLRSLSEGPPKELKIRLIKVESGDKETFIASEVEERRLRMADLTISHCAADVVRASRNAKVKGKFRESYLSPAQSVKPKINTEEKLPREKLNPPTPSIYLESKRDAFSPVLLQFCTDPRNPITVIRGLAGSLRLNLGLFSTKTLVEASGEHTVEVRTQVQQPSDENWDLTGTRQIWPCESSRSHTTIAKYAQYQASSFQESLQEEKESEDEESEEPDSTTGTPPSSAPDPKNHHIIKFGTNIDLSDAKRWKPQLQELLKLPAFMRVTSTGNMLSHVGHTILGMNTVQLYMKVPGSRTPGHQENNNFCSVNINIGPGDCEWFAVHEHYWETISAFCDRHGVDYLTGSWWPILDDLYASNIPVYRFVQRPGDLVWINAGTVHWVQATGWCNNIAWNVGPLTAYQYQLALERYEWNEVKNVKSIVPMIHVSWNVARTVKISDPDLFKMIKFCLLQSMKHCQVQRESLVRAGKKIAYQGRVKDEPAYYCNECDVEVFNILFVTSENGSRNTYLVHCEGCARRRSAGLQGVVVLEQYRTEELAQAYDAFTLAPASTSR

Row | SMILES | Fold Selectivity Compared to KDM5A (KDM3A; IC50 of KDM3A over KDM5A) | IC50 (KDM3A; enzyme concentration 0.3 nM) [nM] | Fold Selectivity Compared to KDM5A (KDM7B; IC50 of KDM7B over KDM5A) | IC50 (KDM7B; enzyme concentration 2.5 nM) [nM] | Fold Selectivity Compared to KDM5A (KDM6B; IC50 of KDM6B over KDM5A) | IC50 (KDM6B; enzyme concentration 1 nM, read-out: IC50) [nM] | H3K4me3:H3 level (H3K4me3:H3) | adverse effects (Tolerability in rats) | antiviral efficacy: serum HBsAg and HBV DNA (HBV (genotype C, GTC))
1 | CCN(CCN(C)C)C(=O)CNCc1cc(C(=O)O)ccn1 [GS-080] | > 4,720 fold | 1700 | > 1,110 fold | 400 | > 17,200 fold | 6200 | – | – | –
2 | CCOC(=O)c1ccnc(CNCC(=O)N(CC)CCN(C)C)c1 [GS-5801] | – | – | – | – | – | – | almost back to baseline levels; also recorded: near baseline levels | no adverse effects were observed | did not result in changes in the amounts of HBsAg or HBV DNA; also recorded: did not have antiviral activity at either dose tested
